Measurements as given in US12644889B2, “Viral condensates and methods of use thereof” (Whitehead Institute for Biomedical Research, priority 2020, dated 2026).

Biological target: T1, SARS-CoV-2 nucleocapsid condensates (Severe acute respiratory syndrome coronavirus 2, UniProt P0DTC9)
T1 construct: Streptavidin tag (so in the source); made in house; host or cells: HEK cells
Experiment: drug partitioning assay in nucleocapsid condensates (confocal fluorescence microscopy)
Conditions: in vitro condensates not containing DNA; 10 uM nucleocapsid, 10% PEG, 1-50 uM drug

For `O=C1c2c(O)ccc(O)c2C(=O)c2c(NCCNCCO)ccc(NCCNCCO)c21` [mitoxantrone], the “partitioning of drug into nucleocapsid condensates” value was “partitions into SARS-CoV-2 nucleocapsid condensates not containing DNA”.
